Structures are written as SMILES.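 Where inhibition never reached the appropriate level, the endpoint shown equals the highest concentration tested. Otherwise, values were interpolated linearly from a five-concentration, 48-hour dose response in 96-well plates. The concentration for 50% growth inhibition is given as GI50.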 Calls of active or inactive are those of the source. Cut-off read from the data, not from the text of the source: active = GI50 up to about 1.1 µM and inactive = higher.

Among the test systems are EKVX; MDA-N; HT-29; HCT-15; K562; Hs-578T; HL-60; LOX IMVI; UACC-62; DU-145; SF-268; NCI-H460; SK-MEL-5; HCT-116; Malme-3M; RPMI-8226; SF-295; SN12C; HOP-62; CAKI-1.
What all share (assay): NCI-60 cell line screen, 48 h

Consider `Cc1cc(CS(=O)(=O)/C=C/c2ccccc2[N+](=O)[O-])c(CS(=O)(=O)/C=C/c2ccccc2[N+](=O)[O-])cc1C`, for which the GI50 was 29.9 µM (inactive) in the experiment with EKVX; > 27.9 µM (inactive) in the experiment on MDA-N; > 61.7 µM (inactive) in the experiment with HT-29; > 33 µM with HCT-15; 35.3 µM (inactive) in the experiment with K562; 3.44 µM (inactive) in the experiment on Hs-578T. Moreover, the GI50 in the experiment with HL-60 was > 79.4 µM (inactive); in the experiment with LOX IMVI, 24.3 µM (inactive); in the experiment on UACC-62, 23.6 µM (inactive); in the experiment with DU-145 it was 56.2 µM (inactive); with SF-268, 25.4 µM (inactive); with NCI-H460, 33.8 µM (inactive). Besides, the GI50 is 37.2 µM (inactive) in the experiment on SK-MEL-5; 37 µM (inactive) with HCT-116; 28 µM (inactive) in the experiment with Malme-3M; 9.42 µM (inactive) in the experiment on RPMI-8226; 16.9 µM (inactive) in the experiment on SF-295; 52.6 µM (inactive) with SN12C. For the same compound, the results for the GI50 with HOP-62 and with CAKI-1 were 19.1 µM (inactive) and 35.7 µM (inactive), respectively.
For the compound `OCCOc1ccccc2cccc1-2`, the GI50 in the experiment on EKVX was > 100 µM (inactive); with MDA-N it was > 100 µM (inactive); in the experiment on HT-29 it was > 100 µM (inactive); in the experiment on HCT-15 it was > 100 µM; in the experiment with K562 it was 84.7 µM (inactive); in the experiment on Hs-578T, > 100 µM (inactive). Also, the GI50 in the experiment on HL-60 is > 100 µM (inactive); in the experiment on LOX IMVI it was > 100 µM (inactive); in the experiment with UACC-62, > 100 µM (inactive); with DU-145 it was > 100 µM (inactive); in the experiment on SF-268, > 100 µM (inactive); in the experiment on NCI-H460, 73.6 µM (inactive). The GI50 in the experiment with SK-MEL-5 is > 100 µM (inactive); with HCT-116, > 100 µM (inactive); in the experiment on Malme-3M, > 100 µM (inactive); with RPMI-8226 it was 61.8 µM (inactive); in the experiment with SF-295, > 100 µM (inactive); in the experiment on SN12C, > 100 µM (inactive). Moreover, the GI50 in the experiment on HOP-62 and in the experiment with CAKI-1 was > 100 µM (inactive) in each case.
For `Cc1c(-c2ccccc2)[nH]c2ccc(Cl)cc2c1=O`, the GI50 is 47.4 µM (inactive) with EKVX; 17.4 µM (inactive) with MDA-N; 40.8 µM (inactive) with HT-29; 28.7 µM with HCT-15; 8.87 µM (inactive) with K562; 30.5 µM (inactive) in the experiment on Hs-578T. The GI50 is 24.2 µM (inactive) in the experiment on HL-60; 27.9 µM (inactive) with LOX IMVI; 34.8 µM (inactive) in the experiment with UACC-62; 70 µM (inactive) in the experiment on DU-145; 30.6 µM (inactive) with SF-268; 0.314 µM (active) with NCI-H460. Also, the GI50 in the experiment on SK-MEL-5 was 13.3 µM (inactive); with HCT-116, 17.6 µM (inactive); in the experiment with Malme-3M, 18.3 µM (inactive); in the experiment with RPMI-8226, 15.2 µM (inactive); in the experiment with SF-295 it was 30.8 µM (inactive); in the experiment with SN12C it was > 100 µM (inactive). Moreover, the GI50 in the experiment with HOP-62 was 19.1 µM (inactive); in the experiment on CAKI-1, < 0.01 µM (active).
As to `COC(=O)/C=C\[C@H]1[C@H](C)N1S(=O)(=O)c1ccc(C)cc1` (stereo not given in full), the GI50 in the experiment with EKVX was > 100 µM (inactive); in the experiment on MDA-N, > 100 µM (inactive); in the experiment on HT-29 it was > 100 µM (inactive); in the experiment on HCT-15 it was 70.3 µM; with K562, > 100 µM (inactive); in the experiment on Hs-578T, > 100 µM (inactive). The GI50 with HL-60, in the experiment on LOX IMVI, with UACC-62, in the experiment with DU-145, in the experiment on SF-268 and with NCI-H460 was > 100 µM (inactive) each time. Further, the GI50 with SK-MEL-5, with HCT-116, in the experiment on Malme-3M, in the experiment on RPMI-8226, in the experiment on SF-295 and in the experiment on SN12C was > 100 µM (inactive) throughout. The GI50 with HOP-62 and in the experiment with CAKI-1 was > 100 µM (inactive) in each case.
On to `Cc1ccc(N2C(=O)C(=O)N(/N=C3\C(=O)Nc4ccccc43)C2=S)cc1`, for which the GI50 was > 100 µM (inactive) in the experiment on EKVX; 59.7 µM (inactive) in the experiment with MDA-N; 58.6 µM (inactive) in the experiment on HT-29; 39.8 µM with HCT-15; 37.1 µM (inactive) with K562; > 100 µM (inactive) with Hs-578T. For the same compound, the GI50 with HL-60 was 0.0998 µM (active); in the experiment with LOX IMVI, 31.6 µM (inactive); in the experiment on UACC-62, 92.9 µM (inactive); in the experiment with DU-145, > 100 µM (inactive); with SF-268, 58.5 µM (inactive); with NCI-H460, 31.5 µM (inactive). Also, the GI50 in the experiment on SK-MEL-5 is 41.2 µM (inactive); with HCT-116, 65.8 µM (inactive); with Malme-3M, > 100 µM (inactive); in the experiment with RPMI-8226, 40.6 µM (inactive); in the experiment with SF-295, 54.1 µM (inactive); with SN12C, > 100 µM (inactive). Further, the GI50 was > 100 µM (inactive) in the experiment with HOP-62 and 92.5 µM (inactive) in the experiment on CAKI-1.
Consider `COc1ccc2c(CC(=O)O)cc(=O)oc2c1`, for which the GI50 with EKVX was > 100 µM (inactive); in the experiment with MDA-N it was > 100 µM (inactive); in the experiment on HT-29 it was > 100 µM (inactive); with HCT-15, > 100 µM; with K562, > 100 µM (inactive); in the experiment on Hs-578T it was > 100 µM (inactive). The GI50 with HL-60, in the experiment with LOX IMVI, with UACC-62, in the experiment with DU-145, in the experiment on SF-268 and with NCI-H460 was > 100 µM (inactive) in each case. Also, the GI50 was > 100 µM (inactive) with SK-MEL-5; > 100 µM (inactive) with HCT-116; 54.8 µM (inactive) in the experiment on Malme-3M; > 100 µM (inactive) in the experiment with RPMI-8226; > 100 µM (inactive) with SF-295; > 100 µM (inactive) in the experiment on SN12C. In addition, the GI50 in the experiment with HOP-62 and with CAKI-1 was > 100 µM (inactive) in each case.
On to `CC(C)OP(=O)(OC(C)C)C(Nc1cccc(C(F)(F)F)c1)c1ccccc1` (stereo not given), for which the GI50 in the experiment on EKVX is 33.3 µM (inactive); in the experiment on MDA-N, 41 µM (inactive); with HT-29, 21.6 µM (inactive); with HCT-15, 55.5 µM; in the experiment on K562 it was 23.4 µM (inactive); in the experiment with Hs-578T, 75.3 µM (inactive). Besides, the GI50 with HL-60 is 14.7 µM (inactive); in the experiment with LOX IMVI it was 39.4 µM (inactive); with UACC-62, 69.8 µM (inactive); in the experiment with DU-145, 77.6 µM (inactive); in the experiment on SF-268, > 100 µM (inactive); in the experiment on NCI-H460, 24 µM (inactive). The GI50 with SK-MEL-5 was 22.4 µM (inactive); in the experiment with HCT-116 it was 17.1 µM (inactive); in the experiment with Malme-3M it was 32.3 µM (inactive); in the experiment on RPMI-8226, 12.7 µM (inactive); in the experiment with SF-295, 47.9 µM (inactive); in the experiment on SN12C it was 37.7 µM (inactive). Also, the figures for the GI50 with HOP-62 and with CAKI-1 were 69.7 µM (inactive) and 18.7 µM (inactive), respectively.
As to `COc1ccc2c(c1)[nH]c1c(/C=C/c3ccccc3)nccc12`, the GI50 is 12.6 µM (inactive) in the experiment on EKVX; 16.2 µM (inactive) in the experiment with MDA-N; 10 µM (inactive) in the experiment with HT-29; 11.5 µM with HCT-15; 15.9 µM (inactive) with K562; 19 µM (inactive) in the experiment on Hs-578T. Also, the GI50 with HL-60 was 19.1 µM (inactive); in the experiment with LOX IMVI, 18.7 µM (inactive); in the experiment with UACC-62, 14.5 µM (inactive); in the experiment on DU-145, 20.5 µM (inactive); with SF-268, 17.7 µM (inactive); in the experiment on NCI-H460 it was 13.2 µM (inactive). The GI50 with SK-MEL-5 was 14.8 µM (inactive); with HCT-116, 12.1 µM (inactive); with Malme-3M, 15.9 µM (inactive); in the experiment on RPMI-8226, 13.3 µM (inactive); in the experiment with SF-295 it was 8.81 µM (inactive); in the experiment with SN12C, 14.2 µM (inactive). Besides, the GI50 in the experiment with HOP-62 was 15.7 µM (inactive); in the experiment on CAKI-1, 14.5 µM (inactive).
`COC(=O)C1Cc2c([nH]c3ccccc23)-c2[nH]c3ccccc3c2CC(NC(C)=O)C(=O)NCC(=O)NCC(=O)N1` (stereo not given): the GI50 in the experiment with EKVX was > 100 µM (inactive); in the experiment with MDA-N it was > 100 µM (inactive); in the experiment on HT-29 it was > 100 µM (inactive); in the experiment on HCT-15, > 100 µM; in the experiment with K562 it was > 100 µM (inactive); in the experiment with Hs-578T, > 100 µM (inactive). In addition, the GI50 in the experiment with HL-60, with LOX IMVI, in the experiment on UACC-62, in the experiment on DU-145, with SF-268 and in the experiment with NCI-H460 was > 100 µM (inactive) each time. The GI50 in the experiment on SK-MEL-5, with HCT-116, with Malme-3M, with RPMI-8226, with SF-295 and in the experiment with SN12C was > 100 µM (inactive) in each case. Also, the GI50 with HOP-62 and with CAKI-1 was > 100 µM (inactive) each time.
With `Cc1nc2sccn2c1/C=C1/C(=O)Nc2cccc(Cl)c21`, the GI50 with EKVX was 79.6 µM (inactive); in the experiment on MDA-N, 12.6 µM (inactive); with HT-29, 56.2 µM (inactive); in the experiment with HCT-15, 47.2 µM; in the experiment on K562 it was 45.3 µM (inactive); in the experiment on Hs-578T, > 100 µM (inactive). Also, the GI50 in the experiment on HL-60 is 52.7 µM (inactive); in the experiment with LOX IMVI it was > 100 µM (inactive); in the experiment on UACC-62 it was > 100 µM (inactive); in the experiment with DU-145 it was > 100 µM (inactive); in the experiment on SF-268, > 100 µM (inactive); with NCI-H460, 92 µM (inactive). Also, the GI50 is 45.7 µM (inactive) in the experiment with SK-MEL-5; 89.9 µM (inactive) in the experiment with HCT-116; > 100 µM (inactive) with Malme-3M; > 100 µM (inactive) in the experiment with RPMI-8226; 51.6 µM (inactive) with SF-295; > 100 µM (inactive) in the experiment on SN12C. The GI50 in the experiment on HOP-62 and in the experiment on CAKI-1 was > 100 µM (inactive) in each case.

The values are drawn from ChEMBL document CHEMBL1201862, “PubChem BioAssay data set” (2004).
